From ChEMBL document CHEMBL4052745 (Bioorg Med Chem, 2017)
Converted amounts (≈) assume the structure as drawn.

Test system: Bacillus anthracis
Experiment: Bactericidal activity against Bacillus anthracis
Type: functional
Conditions: not given
For `CC(C)NC(=O)N[C@H](CNC(=O)N[C@@H](CCCCN)CNC(=O)N[C@H](CNC(=O)N[C@H](CCNC(=O)N[C@@H](CCCCN)CNC(=O)N[C@H](CNC(=O)N[C@@H](CCCCN)CNC(=O)N[C@H](CCC(N)=O)C(C)C)Cc1c[nH]c2ccccc12)C(C)C)Cc1c[nH]c2ccccc12)C(C)C`, the EC50 was 7 to 10 µg/mL (≈ 4.99 to 7.13 µM).

Test system: not listed separately
Experiment: Cytotoxicity against mouse RAW264.7 cells after 4 hrs by MTT assay
Type: cell-based
Conditions: read-out: TD50
Molecule `CC(C)NC(=O)N[C@H](CNC(=O)N[C@@H](CCCCN)CNC(=O)N[C@H](CNC(=O)N[C@H](CNC(=O)N[C@@H](CCCCN)CNC(=O)N[C@H](CNC(=O)N[C@@H](CCCCN)CNC(=N)N[C@H](CCC(N)=O)C(C)C)Cc1c[nH]c2ccccc12)C(C)C)Cc1c[nH]c2ccccc12)C(C)C` has a CC50 at 4 h of 15 µg/mL (≈ 10.8 µM).
`CC(C)NC(=O)N[C@H](CNC(=O)N[C@@H](CCCCN)CNC(=O)N[C@H](CNC(=O)N[C@H](CNC(=S)N[C@@H](CCCCN)CNC(=O)N[C@H](CNC(=O)N[C@@H](CCCCN)CNC(=O)N[C@H](CNC(N)=O)C(C)C)Cc1c[nH]c2ccccc12)C(C)C)Cc1c[nH]c2ccccc12)C(C)C` gave a CC50 at 4 h of 28 µg/mL (≈ 19.9 µM).
With `CC(C)NC(=O)N[C@H](CNC(=O)N[C@@H](CCCCN)CNC(=O)N[C@H](CNC(=O)N[C@H](CNC(=O)N[C@@H](CCCCN)CNC(=O)N[C@H](CNC(=O)N[C@@H](CCCCN)CNC(=S)N[C@H](CCC(N)=O)C(C)C)Cc1c[nH]c2ccccc12)C(C)C)Cc1c[nH]c2ccccc12)C(C)C` the CC50 at 4 h was 20.5 µg/mL (≈ 14.6 µM).
`CC(C)NC(=O)N[C@H](CNC(=O)N[C@@H](CCCCN)CNC(=O)N[C@H](CNC(=O)N[C@H](CNC(=O)N[C@@H](CCCCN)CNC(=O)N[C@H](CNC(=O)N[C@@H](CCCCN)CNC(=O)N[C@H](CNC(N)=S)C(C)C)Cc1c[nH]c2ccccc12)C(C)C)Cc1c[nH]c2ccccc12)C(C)C` showed a CC50 at 4 h of 21 µg/mL (≈ 14.9 µM).
Work on `CC(C)NC(=O)N[C@H](CNC(=S)N[C@@H](CCCCN)CNC(=O)N[C@H](CNC(=O)N[C@H](CNC(=O)N[C@@H](CCCCN)CNC(=O)N[C@H](CNC(=O)N[C@@H](CCCCN)CNC(=O)N[C@H](CNC(N)=O)C(C)C)Cc1c[nH]c2ccccc12)C(C)C)Cc1c[nH]c2ccccc12)C(C)C` yielded a CC50 at 4 h of 26 µg/mL (≈ 18.5 µM).
